Results on six compounds are retold here after patent publication US20180016244A1, “DEUTERIUM-SUBSTITUTED OXADIAZOLES” (Auspex Pharmaceuticals, Inc., priority 2015, published 2018).

This data set is described as follows: In vitro human liver microsomal stability assay. Type of data set: in vitro ADME. The conditions noted are these: human liver microsomes 2 mg per mL protein, NADPH-generating system, 1 μM test compound, 37±1° C., 0-240 min, change relative to non-deuterated d0 (Example 1); for Half-Life % change over d0: degradation half-life. Here is the method:
In Vitro Liver Microsomal Stability Assay
Human liver microsomal stability assays were conducted at 2 mg per mL liver microsome protein with an NADPH-generating system consisting of NADP (1 mM, pH 7.4), […] (5 mM, pH 7.4), and glucose-6-phosphate dehydrogenase (I unit/mL).
Test compounds were prepared as solutions in DMSO and added to the assay mixture (1 μM, final concentration in incubation) to be incubated at 37±1° C. Reactions were initiated with the addition of cofactor and were stopped at 0, 60, 120, or 240 min after cofactor addition with stop reagent (0.2 mL acetonitrile). Samples were centrifuged (920×g for 10 min at 10° C.) in 96-well plates. Supernatant fractions were analyzed by LC-MS/MS to determine the percent remaining and estimate the degradation half-life of the test compounds.
Background: Liver microsomes are vesicles of endoplasmic reticulum, rich in cytochrome P450 enzymes.

For `[2H]C([2H])([2H])C([2H])(Oc1ccc(-c2nc(-c3cccc4c3CC[C@@H]4NC([2H])([2H])C([2H])([2H])O)no2)cc1C#N)C([2H])([2H])[2H]` [Example 5, 5-[3-[(1S)-1-[[2-hydroxy(^2H7)ethyl]amino]-2,3-dihydro-1H-inden-4-yl]-1,2,4-oxadiazol-5-yl]-2-[(^2H4)propan-2-yloxy]benzonitrile], the “Clearance % change over d0” value turned out to be 11% and the “Half-Life % change over d0” value stood at 0.0%.
On the same counts, the results for `CC(C)Oc1ccc(-c2nc(-c3cccc4c3CC[C@@H]4NCCO)no2)cc1C#N` [Example 1, 5-[3-[(1S)-1-[(2-hydroxyethyl)amino]-2,3-dihydro-1H-inden-4-yl]-1,2,4-oxadiazol-5-yl]-2-(propan-2-yloxy)benzonitrile, reference compound] are 0.00% and 0.0%.
For `[2H]C([2H])([2H])C([2H])(Oc1ccc(-c2nc(-c3cccc4c3CC[C@@H]4NCCO)no2)cc1C#N)C([2H])([2H])[2H]` [Example 3, 5-[3-[(1S)-1-[(2-hydroxyethyl)amino]-2,3-dihydro-1H-inden-4-yl]-1,2,4-oxadiazol-5-yl]-2-[(^2H7)propan-2-yloxy]benzonitrile] the same measures were 7% and 0.0%.
`[2H]C(C)(C)Oc1ccc(-c2nc(-c3cccc4c3CC[C@@H]4NCCO)no2)cc1C#N` [Example 2, 5-[3-[(1S)-1-[(2-hydroxyethyl)amino]-2,3-dihydro-1H-inden-4-yl]-1,2,4-oxadiazol-5-yl]-2-[(2-^2H)propan-2-yloxy]benzonitrile]: the “Clearance % change over d0” value is on record as 1% and the “Half-Life % change over d0” value was −9.0%.
On the same counts, the results for `[2H]C(C)(C)Oc1ccc(-c2nc(-c3cccc4c3CC[C@@H]4NC([2H])([2H])C([2H])([2H])O)no2)cc1C#N` [Example 4, 5-[3-[(1S)-1-[[2-hydroxy(^2H4)ethyl]amino]-2,3-dihydro-1H-inden-4-yl]-1,2,4-oxadiazol-5-yl]-2-[(2-^2H)propan-2-yloxy]benzonitrile] are 5% and −4.6%.
For `[2H]C(C)(C)Oc1ccc(-c2nc(-c3cccc4c3CC[C@]4([2H])NCCO)no2)cc1C#N` [Example 6, 5-[3-[(1S)-1-[(2-hydroxyethyl)amino]-2,3-dihydro(1-^2H)-1H-inden-4-yl]-1,2,4-oxadiazol-5-yl]-2-[(2-^2H)propan-2-yloxy]benzonitrile] the same measures were 2% and 17.9%.
